Assay results from PubChem BioAssay (NCI).
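Cells were grown in 96-well plates and exposed to each compound for 48 hours at five concentrations; endpoints were interpolated linearly between bracketing concentrations, or set to the highest concentration if not reached. At the TGI there is no net growth.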

Legend:
Assay in all cases: NCI anticancer screen, dose series, 48 h
IGROV1 ovarian = system: IGROV1 ovarian
SNB-19 CNS = system: SNB-19 CNS
HL-60(TB) leukemia = system: HL-60(TB) leukemia
SK-OV-3 ovarian = system: SK-OV-3 ovarian
SW-620 colon = system: SW-620 colon
COLO 205 colon = system: COLO 205 colon
RPMI-8226 leukemia = system: RPMI-8226 leukemia
HCT-15 colon = system: HCT-15 colon
SF-295 CNS = system: SF-295 CNS
OVCAR-5 ovarian = system: OVCAR-5 ovarian
M19-MEL melanoma = system: M19-MEL melanoma
KM20L2 colon = system: KM20L2 colon
SK-MEL-5 melanoma = system: SK-MEL-5 melanoma
CAKI-1 renal = system: CAKI-1 renal
HOP-62 NSCLC = system: HOP-62 NSCLC
MALME-3M melanoma = system: MALME-3M melanoma
SF-268 CNS = system: SF-268 CNS
ACHN renal = system: ACHN renal
CCRF-CEM leukemia = system: CCRF-CEM leukemia
DMS 273 small cell lung = system: DMS 273 small cell lung
HCC-2998 colon = system: HCC-2998 colon
DMS 114 small cell lung = system: DMS 114 small cell lung
HOP-18 NSCLC = system: HOP-18 NSCLC
A498 renal = system: A498 renal
RXF 393 renal = system: RXF 393 renal
OVCAR-8 ovarian = system: OVCAR-8 ovarian
SNB-78 CNS = system: SNB-78 CNS
SK-MEL-2 melanoma = system: SK-MEL-2 melanoma
HOP-92 NSCLC = system: HOP-92 NSCLC
UACC-62 melanoma = system: UACC-62 melanoma
EKVX NSCLC = system: EKVX NSCLC
K-562 leukemia = system: K-562 leukemia
LXFL 529 NSCLC = system: LXFL 529 NSCLC
HCT-116 colon = system: HCT-116 colon
TK-10 renal = system: TK-10 renal
NCI-H522 lung = system: NCI-H522 lung
DLD-1 colon = system: DLD-1 colon
SNB-75 CNS = system: SNB-75 CNS
HT29 colon = system: HT29 colon
LOX IMVI melanoma = system: LOX IMVI melanoma
UO-31 renal = system: UO-31 renal
NCI-H460 lung = system: NCI-H460 lung
786-0 renal = system: 786-0 renal
SF-539 CNS = system: SF-539 CNS
SR leukemia = system: SR leukemia
OVCAR-3 ovarian = system: OVCAR-3 ovarian
A549 NSCLC = system: A549 NSCLC
KM12 colon = system: KM12 colon
SK-MEL-28 melanoma = system: SK-MEL-28 melanoma
U251 CNS = system: U251 CNS
MOLT-4 leukemia = system: MOLT-4 leukemia
M14 melanoma = system: M14 melanoma
SN12C renal = system: SN12C renal
UACC-257 melanoma = system: UACC-257 melanoma
OVCAR-4 ovarian = system: OVCAR-4 ovarian
NCI-H23 lung = system: NCI-H23 lung
NCI-H226 lung = system: NCI-H226 lung
XF 498 CNS = system: XF 498 CNS

`N#CC1(C#N)C(C#N)(C#N)C12CCCCCC2` was tested, and the TGI (IGROV1 ovarian) was > 68.8 µM, the TGI (SNB-19 CNS) was > 87.8 µM and the TGI (HL-60(TB) leukemia) was 20.6 µM. For the same compound, the TGI (SK-OV-3 ovarian) was > 100 µM, the TGI (SW-620 colon) was 5.29 µM and the TGI (COLO 205 colon) was 33.7 µM. For the same compound, the TGI (RPMI-8226 leukemia) was > 35.1 µM, the TGI (HCT-15 colon) was 24.2 µM and the TGI (SF-295 CNS) was > 57.2 µM. It also gave a TGI (OVCAR-5 ovarian) of 30 µM, a TGI (M19-MEL melanoma) of 47.9 µM and a TGI (KM20L2 colon) of 32 µM. The TGI (SK-MEL-5 melanoma) was 36.7 µM, the TGI (CAKI-1 renal) was 24.6 µM and the TGI (HOP-62 NSCLC) was > 89.4 µM. The TGI (MALME-3M melanoma) was 31 µM, the TGI (SF-268 CNS) was 48.9 µM and the TGI (ACHN renal) was 23.2 µM. The TGI (CCRF-CEM leukemia) was 6.89 µM, the TGI (DMS 273 small cell lung) was 52.4 µM and the TGI (HCC-2998 colon) was 35.3 µM. It also gave a TGI (DMS 114 small cell lung) of 43.2 µM, a TGI (HOP-18 NSCLC) of 30.3 µM and a TGI (A498 renal) of 34.1 µM. For the same compound, the TGI (RXF 393 renal) was 22.9 µM, the TGI (OVCAR-8 ovarian) was 26.7 µM and the TGI (SNB-78 CNS) was 38.5 µM. It also gave a TGI (SK-MEL-2 melanoma) of 18.4 µM, a TGI (HOP-92 NSCLC) of 29.4 µM and a TGI (UACC-62 melanoma) of 18.4 µM. The TGI (EKVX NSCLC) was 31.9 µM, the TGI (K-562 leukemia) was > 30.3 µM and the TGI (LXFL 529 NSCLC) was 29.8 µM. For the same compound, the TGI (HCT-116 colon) was 17.5 µM, the TGI (TK-10 renal) was 30.5 µM and the TGI (NCI-H522 lung) was 7.88 µM. The TGI (DLD-1 colon) was 10.3 µM, the TGI (SNB-75 CNS) was > 55.3 µM and the TGI (HT29 colon) was 34.6 µM. For the same compound, the TGI (LOX IMVI melanoma) was 32.3 µM, the TGI (UO-31 renal) was 32.8 µM and the TGI (NCI-H460 lung) was > 66.5 µM. For the same compound, the TGI (786-0 renal) was 14.3 µM, the TGI (SF-539 CNS) was 18 µM and the TGI (SR leukemia) was 75.2 µM. The TGI (OVCAR-3 ovarian) was 29.7 µM, the TGI (A549 NSCLC) was 21.4 µM and the TGI (KM12 colon) was 19.3 µM. The TGI (SK-MEL-28 melanoma) was 21.4 µM, the TGI (U251 CNS) was 20.5 µM and the TGI (MOLT-4 leukemia) was 19.5 µM. The TGI (M14 melanoma) was 8.67 µM, the TGI (SN12C renal) was 33.7 µM and the TGI (UACC-257 melanoma) was 27.4 µM. It also gave a TGI (OVCAR-4 ovarian) of 30 µM, a TGI (NCI-H23 lung) of 31.3 µM and a TGI (NCI-H226 lung) of 47.5 µM.

For `C=CCC1C(=O)CC2(C)CC(=O)C(CC=C)C12C` (centres undefined), the TGI (IGROV1 ovarian) was > 100 µM, the TGI (SNB-19 CNS) was > 100 µM and the TGI (HL-60(TB) leukemia) was > 100 µM. For the same compound, the TGI (SK-OV-3 ovarian) was > 100 µM, the TGI (SW-620 colon) was > 100 µM and the TGI (COLO 205 colon) was > 100 µM. The TGI (RPMI-8226 leukemia) was > 100 µM, the TGI (HCT-15 colon) was > 100 µM and the TGI (SF-295 CNS) was > 100 µM. The TGI (OVCAR-5 ovarian) was > 100 µM, the TGI (M19-MEL melanoma) was > 100 µM and the TGI (KM20L2 colon) was > 100 µM. For the same compound, the TGI (SK-MEL-5 melanoma) was > 100 µM, the TGI (CAKI-1 renal) was > 100 µM and the TGI (HOP-62 NSCLC) was > 100 µM. The TGI (MALME-3M melanoma) was > 100 µM, the TGI (SF-268 CNS) was > 100 µM and the TGI (ACHN renal) was > 100 µM. For the same compound, the TGI (CCRF-CEM leukemia) was > 100 µM, the TGI (DMS 273 small cell lung) was > 100 µM and the TGI (HCC-2998 colon) was > 100 µM. The TGI (DMS 114 small cell lung) was > 100 µM, the TGI (HOP-18 NSCLC) was > 100 µM and the TGI (XF 498 CNS) was > 100 µM. The TGI (RXF 393 renal) was > 100 µM, the TGI (OVCAR-8 ovarian) was > 100 µM and the TGI (SNB-78 CNS) was > 100 µM. The TGI (HOP-92 NSCLC) was > 100 µM, the TGI (UACC-62 melanoma) was > 100 µM and the TGI (EKVX NSCLC) was > 100 µM. The TGI (K-562 leukemia) was > 100 µM, the TGI (LXFL 529 NSCLC) was > 100 µM and the TGI (HCT-116 colon) was > 100 µM. The TGI (TK-10 renal) was > 100 µM, the TGI (NCI-H522 lung) was > 100 µM and the TGI (DLD-1 colon) was > 100 µM. The TGI (SNB-75 CNS) was > 100 µM, the TGI (HT29 colon) was > 100 µM and the TGI (LOX IMVI melanoma) was > 100 µM. The TGI (UO-31 renal) was > 100 µM, the TGI (NCI-H460 lung) was > 100 µM and the TGI (786-0 renal) was > 100 µM. For the same compound, the TGI (SF-539 CNS) was > 100 µM, the TGI (SR leukemia) was > 100 µM and the TGI (OVCAR-3 ovarian) was > 100 µM. The TGI (A549 NSCLC) was > 100 µM, the TGI (KM12 colon) was > 100 µM and the TGI (SK-MEL-28 melanoma) was > 100 µM. For the same compound, the TGI (U251 CNS) was > 100 µM, the TGI (MOLT-4 leukemia) was > 100 µM and the TGI (M14 melanoma) was > 100 µM. The TGI (SN12C renal) was > 100 µM, the TGI (UACC-257 melanoma) was > 100 µM and the TGI (OVCAR-4 ovarian) was > 100 µM. The TGI (NCI-H23 lung) was > 100 µM and the TGI (NCI-H226 lung) was > 100 µM.

With `CCOC(=O)c1[nH]c(COC(C)=O)c2c1CCCCCCCCCC2` the TGI (IGROV1 ovarian) was > 100 µM, the TGI (SNB-19 CNS) was > 100 µM and the TGI (HL-60(TB) leukemia) was > 100 µM. The TGI (SK-OV-3 ovarian) was > 100 µM, the TGI (SW-620 colon) was > 100 µM and the TGI (COLO 205 colon) was > 100 µM. For the same compound, the TGI (RPMI-8226 leukemia) was > 100 µM, the TGI (HCT-15 colon) was > 100 µM and the TGI (SF-295 CNS) was > 100 µM. The TGI (OVCAR-5 ovarian) was > 100 µM, the TGI (M19-MEL melanoma) was > 100 µM and the TGI (KM20L2 colon) was > 100 µM. For the same compound, the TGI (SK-MEL-5 melanoma) was > 100 µM, the TGI (CAKI-1 renal) was > 100 µM and the TGI (HOP-62 NSCLC) was > 100 µM. The TGI (MALME-3M melanoma) was > 100 µM, the TGI (SF-268 CNS) was > 100 µM and the TGI (CCRF-CEM leukemia) was > 100 µM. For the same compound, the TGI (DMS 273 small cell lung) was > 100 µM, the TGI (HCC-2998 colon) was > 100 µM and the TGI (DMS 114 small cell lung) was > 100 µM. For the same compound, the TGI (HOP-18 NSCLC) was > 100 µM, the TGI (A498 renal) was > 100 µM and the TGI (XF 498 CNS) was > 100 µM. For the same compound, the TGI (RXF 393 renal) was > 100 µM, the TGI (OVCAR-8 ovarian) was > 100 µM and the TGI (SNB-78 CNS) was > 100 µM. For the same compound, the TGI (SK-MEL-2 melanoma) was > 100 µM, the TGI (HOP-92 NSCLC) was > 100 µM and the TGI (UACC-62 melanoma) was > 100 µM. For the same compound, the TGI (EKVX NSCLC) was > 100 µM, the TGI (K-562 leukemia) was > 100 µM and the TGI (LXFL 529 NSCLC) was > 100 µM. For the same compound, the TGI (HCT-116 colon) was > 100 µM, the TGI (TK-10 renal) was > 100 µM and the TGI (NCI-H522 lung) was > 100 µM. The TGI (DLD-1 colon) was > 100 µM, the TGI (SNB-75 CNS) was > 100 µM and the TGI (HT29 colon) was > 100 µM. For the same compound, the TGI (LOX IMVI melanoma) was > 100 µM, the TGI (UO-31 renal) was > 100 µM and the TGI (NCI-H460 lung) was > 100 µM. For the same compound, the TGI (786-0 renal) was > 100 µM, the TGI (SF-539 CNS) was > 100 µM and the TGI (SR leukemia) was > 100 µM. For the same compound, the TGI (OVCAR-3 ovarian) was > 100 µM, the TGI (A549 NSCLC) was > 100 µM and the TGI (KM12 colon) was > 100 µM. For the same compound, the TGI (U251 CNS) was > 100 µM, the TGI (MOLT-4 leukemia) was > 100 µM and the TGI (M14 melanoma) was > 100 µM. For the same compound, the TGI (SN12C renal) was > 100 µM, the TGI (UACC-257 melanoma) was > 100 µM and the TGI (OVCAR-4 ovarian) was > 100 µM. The TGI (NCI-H23 lung) was > 100 µM and the TGI (NCI-H226 lung) was > 100 µM.
